Results from PMC5974779, “Prediction of Drug-Induced Hepatotoxicity Using Long-Term Stable Primary Hepatic 3D Spheroid Cultures in Chemically Defined Conditions” (Toxicological Sciences, 2018).
Like-named read-outs stand apart in the source and are kept apart here.

Columns and labels:
[1] = test system: PHH spheroids (hanging-drop); settings: cited from earlier work; for hepatotoxicity classification in hanging-drop PHH spheroids: 100× cmax, 2 weeks, ref Proctor et al., 2017
PHH 2D sandwich cultures = settings: cited from earlier work
[2] = ref DrugBank and Prescribers' Digital Reference database; cited from earlier work
[3] = therapeutic total cmax; ref PMID; cited from earlier work
[4] = test system: primary human hepatocytes (PHH) 3D spheroids
clinical DILI in man = settings: cited from earlier work; for Clinical DILI classification (Figure 5): structural analogue pairs, 2008 and others
[5] = PHH hanging-drop spheroids, 100x Cmax, ref Proctor 2017
[6] = PHH 2D sandwich cultures, 100x Cmax, ref Xu 2008
[7] = DILI classification score, ref Suzuki et al. (2010)
[8] = FDA drug labeling DILI score, ref Chen et al., 2011
[9] = clinical DILI classification in man (POS/NEG)
[10] = clinical DILI classification used in this study, Supplementary Table 2, ref Chen et al., 2011, Guo et al., 2005, O'Brien et al., 2006, Sakatis et al., 2012, Suzuki et al., 2010, Xu et al., 2008
[11] = clinical DILI classification, Supplementary Table 1, ref Chen et al., 2011, Guo et al., 2005, O'Brien et al., 2006, Sakatis et al., 2012, Suzuki et al., 2010, Xu et al., 2008
[12] = reported pattern of liver damage, Supplementary Table 2, ref literature
[13] = ref Chen et al., 2011, Xu et al.
[14] = clinical DILI classification, ref Xu et al. (2008)
[15] = clinical hepatotoxicity classification, ref O'Brien et al. (2003)

SMILES	Hanging-drop spheroids (Proctor 2017) 100x [1, 5]	2Dsw (Xu 2008) 100x (PHH 2D sandwich cultures; [6])	Extent of hepatic metabolism [2]	Cmax [3] [nM]	Chemically defined spheroids (this study) 20x [4]	Classified as (clinical DILI in man; in vivo)	Clinical DILI class (panel heading of Figure 4) (clinical DILI in man; in vivo)	DILI in vivo (clinical DILI in man; in vivo)	FDA (0-8) (clinical DILI in man; in vivo)	Type of DILI (clinical DILI in man; in vivo)	DILI in vivo (clinical DILI in man; [9])	Classified as (clinical DILI in man; [10])	DILI in vivo (clinical DILI in man; [11])	Type of DILI (clinical DILI in man; [12])	Xu et al. (2008) (clinical DILI in man; in vivo)	Sakatis et al. (2012) (clinical DILI in man; in vivo)	further results
CCCCc1oc2ccccc2c1C(=O)c1cc(I)c(OCCN(CC)CC)c(I)c1 [Amiodarone]	Positive	Positive	–	–	–	–	–	–	–	–	–	–	–	–	–	–	–
CC(C(=O)O)c1ccc2oc(-c3ccc(Cl)cc3)nc2c1 (centres unmarked) [Benoxaprofen]	Negative	–	Moderate	33100	Negative	POS	Severe DILI	POS	Withdrawn	Hepatocellular injury	–	–	–	–	–	–	FDA (Severity) (clinical DILI in man; in vivo): most DILI concern; Suzuki et al. (2010) (clinical DILI in man; in vivo): 3
COc1ccccc1Oc1c(NS(=O)(=O)c2ccc(C(C)(C)C)cc2)nc(-c2ncccn2)nc1OCCO [Bosentan]	Positive	–	Extensive	–	Positive	–	–	–	–	–	POS	POS	POS	Hepatocellular injury or Mixed hepatitis	–	–	hepatotoxicity evaluation in CD-spheroids [4]: clearly detected bosentan-induced liver injury; Suzuki et al. (2010) (clinical DILI in man; [7]): 1; FDA (Severity) (clinical DILI in man; FDA drug labeling DILI concern, ref Chen et al., 2011): most DILI concern; FDA (0-8) (clinical DILI in man; [8]): 7; Clinical DILI classification (Figure 5) (clinical DILI in man; [13]): DILI positive
CN(C)CCC(c1ccc(Cl)cc1)c1ccccn1 (centres unmarked) [Chlorpheniramine]	Negative	–	Extensive	–	–	NEG	DILI negative	NEG	0	Non-hepatotoxic	–	–	–	–	Positive	–	–
CN(C)CCCN1c2ccccc2Sc2ccc(Cl)cc21 [Chlorpromazine]	Positive	Positive	Extensive	840	Positive	POS	High DILI concern	POS	2	Cholestatic injury or Mixed hepatitis	–	–	–	–	Positive	Hepatotoxic	Guo et al. (2005) (clinical DILI in man; in vivo): 3; O'Brien et al. (2003) (clinical DILI in man; in vivo): Moderately; Suzuki et al. (2010) (clinical DILI in man; in vivo): 2
COc1ccc2c(c1)c(CC(=O)O)c(C)n2C(=O)c1ccc(Cl)cc1 [Indomethacin]	–	–	–	–	Positive	–	–	–	–	–	–	–	–	–	–	–	hepatotoxicity classification in hanging-drop PHH spheroids [1]: previously missed; hepatotoxicity evaluation in CD-spheroids [4]: revealed the DILI liability; hepatotoxicity evaluation in CD-spheroids ([4]; human, 14 days): clearly detected already at 1× cmax exposure levels
CN(Cc1cnc2nc(N)nc(N)c2n1)c1ccc(C(=O)N[C@@H](CCC(=O)O)C(=O)O)cc1 [Methotrexate]	Negative	Negative	Moderate	–	Positive	–	–	–	–	–	POS	POS	POS	Hepatocellular injury	–	–	hepatotoxicity classification in hanging-drop PHH spheroids [1]: previously missed; hepatotoxicity evaluation in CD-spheroids [4]: revealed the DILI liability; hepatotoxicity evaluation in CD-spheroids ([4]; human, 14 days): clearly detected already at 1× cmax exposure levels; Guo et al. (2005) (clinical DILI in man; DILI classification score, ref Guo et al. (2005)): 3; Suzuki et al. (2010) (clinical DILI in man; [7]): 1; FDA (0-8) (clinical DILI in man; [8]): 3; Xu et al. (2008) (clinical DILI in man; [14]): Positive; O'Brien et al. (2003) (clinical DILI in man; [15]): Severely; Sakatis et al. (2012) (clinical DILI in man; clinical hepatotoxicity classification, ref Sakatis et al. (2012)): Hepatotoxic
CC(C)(C)NCC(O)COc1cccc2c1CC(O)C(O)C2 (centres unmarked) [Nadolol]	Negative	Negative	Minimal	–	Negative	–	–	–	–	–	NEG	NEG	NEG	Non-hepatotoxic	–	–	FDA (0-8) (clinical DILI in man; [8]): 3; Xu et al. (2008) (clinical DILI in man; [14]): Negative
CS(=O)(=O)Nc1ccc([N+](=O)[O-])cc1Oc1ccccc1 [Nimesulide]	–	–	–	21100	Positive	POS	Severe DILI	POS	Withdrawn	Hepatocellular injury or Cholestatic injury	–	–	–	–	Positive	Hepatotoxic	Hanging-drop spheroids (Proctor 2017) 100x [1]: Positive; 2Dsw (Xu 2008) 100x (PHH 2D sandwich cultures): Positive; FDA (Severity) (clinical DILI in man; in vivo): most DILI concern; O'Brien et al. (2003) (clinical DILI in man; in vivo): Severely; Suzuki et al. (2010) (clinical DILI in man; in vivo): 3
O=C1CN(/N=C/c2ccc([N+](=O)[O-])o2)C(=O)N1 [Nitrofurantoin]	Positive	–	Minimal	21000	–	POS	Severe DILI	POS	8	Hepatocellular injury or Autoimmune hepatitis	–	–	–	–	–	Hepatotoxic	FDA (Severity) (clinical DILI in man; in vivo): most DILI concern; Guo et al. (2005) (clinical DILI in man; in vivo): 3; O'Brien et al. (2003) (clinical DILI in man; in vivo): Severely; Suzuki et al. (2010) (clinical DILI in man; in vivo): 2; association with idiopathic autoimmune hepatitis (clinical DILI in man; in vivo): associated with cases of idiopathic autoimmune hepatitis
Cc1ccccc1C(OCCN(C)C)c1ccccc1 (centres unmarked) [Orphenadrine]	Negative	Negative	Extensive	490	–	NEG	DILI negative	NEG	0	Non-hepatotoxic	–	–	–	–	Negative	non-hepatotixic	–
CCN(CC)CC#CCOC(=O)C(O)(c1ccccc1)C1CCCCC1 (centres unmarked) [Oxybutynin]	–	–	–	20	Negative	NEG	DILI negative	NEG	0	Non-hepatotoxic	–	–	–	–	Negative	non-hepatotixic	Hanging-drop spheroids (Proctor 2017) 100x [1]: Negative; 2Dsw (Xu 2008) 100x (PHH 2D sandwich cultures): Negative
C#CCN(C)Cc1ccccc1 [Pargyline]	Negative	–	Moderate	820	Negative	–	–	–	–	–	NEG	NEG	NEG	Non-hepatotoxic	–	–	–
CN(CCOc1ccc(CC2SC(=O)NC2=O)cc1)c1ccccn1 (centres unmarked) [Rosiglitazone]	Positive	Negative	Extensive	950	–	–	–	–	–	–	NEG	NEG	NEG	Non-hepatotoxic	–	–	FDA (0-8) (clinical DILI in man; [8]): 3; Xu et al. (2008) (clinical DILI in man; [14]): Negative; O'Brien et al. (2003) (clinical DILI in man; [15]): Non-toxic; Clinical DILI classification (Figure 5) (clinical DILI in man; [13]): DILI negative
Clc1ccccc1CN1CCc2sccc2C1 [Ticlopidine]	Positive	Positive	–	8070	–	–	–	–	–	–	–	–	–	–	–	–	–
